Laboratory results from patent US20240246905A1 (University of Leicester, priority 2021, published 2024).

Key:
red blood cells = test: Hemolysis assay (CO-ADD); assay type: cell-based; conditions: 32 μg/mL highest concentration tested
Description: A problem often encountered by emerging drugs is hemolysis, also known as drug-induced immune hemolytic anemia.

[1] = tested on: various Staphylococcus aureus strains; test: Disc diffusion, Staphylococcus aureus strain study; assay type: cell-based; conditions: 500 μg/mL
Outline: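 Kirby-Bauer disc diffusion on Mueller-Hinton agar spread with 1:200 dilution of overnight S. aureus cultures (TSB, 37 °C). Discs loaded with 50 μL of compound at 500 μg/mL; zone of inhibition recorded after 24 h at 37 °C.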

[2] = tested on: Staphylococcus aureus 15981; test: Disc diffusion (Kirby-Bauer), zone of inhibition; assay type: cell-based; conditions: Staphylococcus aureus 15981; 500 μg/mL; '/' = no zone
Outline: (§1)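 Kirby-Bauer per CLSI 2017: 1 in 200 dilutions of overnight cultures (LB for Gram-negatives, TSB for Gram-positives) spread on Mueller-Hinton agar. Discs loaded with 50 μL antibiotic were added and plates incubated 24 h at 37 °C. Zone of inhibition recorded.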

Escherichia coli DH5α = test: Disc diffusion (Kirby-Bauer), zone of inhibition; assay type: cell-based; conditions: Escherichia coli DH5α; 500 μg/mL; '/' = no zone
Outline: as §1

MRSA 252 [3] = test: MIC, broth micro-dilution; assay type: cell-based, Staphylococcus aureus
Outline: (§2)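 Broth micro-dilution followed CLSI 2017: 1:2 antibiotic dilutions in TSB were inoculated at 5×10^5 CFU/mL. OD was recorded every 12 min over 18 h at 37 °C, and MIC was derived from sigmoidal dose-response fits.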

MSSA 476 [4] = test: MIC, broth micro-dilution; assay type: cell-based, Staphylococcus aureus
Outline: as §2

HEK293 cells = test: Cytotoxicity assay, resazurin (CO-ADD)
Outline: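 HEK293 cells in DMEM with 10% FBS were exposed to compounds at a single concentration of 32 μg/mL for 20 h at 37° C, 5% CO2. Viability read by resazurin fluorescence (2.3 μg/mL final, 3 h; F560/590). CC50 from sigmoidal dose-response fitting.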

MRSA 252 [5] = test: Disc diffusion (Kirby-Bauer), zone of inhibition; assay type: cell-based, Staphylococcus aureus; conditions: 500 μg/mL, '/' = no zone
Outline: as §1

MSSA 476 [6] = test: Disc diffusion (Kirby-Bauer), zone of inhibition; assay type: cell-based, Staphylococcus aureus; conditions: 500 μg/mL, '/' = no zone
Outline: as §1

**Q.** With “(2-Isocyanovinyl)-4-acetaamido benzene [Compound 22]” as the substance, how does the “Hemolytic activity (HC10)” value (red blood cells) read?
**A.** >32 µg/mL

**Q.** What about the Zone of inhibition ([1]; strain ASARM 61) of the same substance?
**A.** 18 mm

**Q.** And the Zone of inhibition ([1]; strain ASARM 70)?
**A.** 18 mm

**Q.** And the Zone of inhibition ([1]; strain ASARM 71)?
**A.** 20 mm

**Q.** What about the Zone of inhibition ([1]; strain ASARM 72) of the same substance?
**A.** 22 mm

**Q.** What about the Zone of inhibition ([1]; strain ASARM 73) of the same substance?
**A.** 20 mm

**Q.** What about the Zone of inhibition ([1]; strain ASARM 75) of the same substance?
**A.** 22 mm

**Q.** And the Zone of inhibition ([1]; strain ASARM 76)?
**A.** 26 mm

**Q.** And the Zone of inhibition ([1]; strain ASARM 77)?
**A.** 24 mm

**Q.** And the Zone of inhibition ([1]; strain ASARM 79)?
**A.** 22 mm

**Q.** And the Zone of inhibition ([1]; strain ASARM 80)?
**A.** 26 mm

**Q.** And the Zone of inhibition ([1]; strain EOE 3)?
**A.** 20 mm

**Q.** And the Zone of inhibition ([1]; strain EOE 23)?
**A.** 22 mm

**Q.** What about the Zone of inhibition ([1]; strain EOE 30) of the same substance?
**A.** 20 mm

**Q.** And the Zone of inhibition ([1]; strain EOE 35)?
**A.** 18 mm

**Q.** What about the Zone of inhibition ([1]; strain EOE 41) of the same substance?
**A.** 20 mm

**Q.** What about the Zone of inhibition ([1]; strain EOE 42) of the same substance?
**A.** 22 mm

**Q.** And the Zone of inhibition ([1]; strain EOE 45)?
**A.** 26 mm

**Q.** What about the Zone of inhibition ([1]; strain EOE 52) of the same substance?
**A.** 22 mm

**Q.** What about the Zone of inhibition ([1]; strain EOE 54) of the same substance?
**A.** 16 mm

**Q.** And the Zone of inhibition ([1]; strain EOE 57)?
**A.** 18 mm

**Q.** What about the Zone of inhibition ([1]; strain MRSA 252) of the same substance?
**A.** 20 mm

**Q.** And the Zone of inhibition ([1]; strain S139_7_7)?
**A.** 16 mm

**Q.** And the Zone of inhibition ([1]; strain S197_1_1)?
**A.** 22 mm

**Q.** What about the Zone of inhibition ([1]; strain S197_1_8) of the same substance?
**A.** 24 mm

**Q.** What about the Zone of inhibition ([1]; strain S197_1_9) of the same substance?
**A.** 26 mm

**Q.** And the Zone of inhibition ([1]; strain S197_1_10)?
**A.** 22 mm

**Q.** And the Zone of inhibition ([1]; strain S295_1_1)?
**A.** 20 mm

**Q.** What about the Zone of inhibition ([1]; strain S295_1_2) of the same substance?
**A.** 20 mm

**Q.** What about the Zone of inhibition ([1]; strain S295_1_3) of the same substance?
**A.** 20 mm

**Q.** What about the Zone of inhibition ([1]; strain S364_5_11) of the same substance?
**A.** 22 mm

**Q.** And the Zone of inhibition ([1]; strain S364_5_12)?
**A.** 20 mm

**Q.** And the Zone of inhibition ([1]; strain Sa_TPS 3026)?
**A.** 20 mm

**Q.** And the Zone of inhibition ([1]; strain Sa_TPS 3072)?
**A.** 22 mm

**Q.** What about the Zone of inhibition ([1]; strain Sa_TPS 3092) of the same substance?
**A.** 24 mm

**Q.** And the Zone of inhibition ([1]; strain Sa_TPS 3097)?
**A.** 24 mm

**Q.** What about the Zone of inhibition ([1]; strain Sa_TPS 3103) of the same substance?
**A.** 22 mm

**Q.** And the Zone of inhibition ([1]; strain Sa_TPS 3104)?
**A.** 20 mm

**Q.** What about the Zone of inhibition ([1]; strain Sa_TPS 3106) of the same substance?
**A.** 26 mm

**Q.** And the Zone of inhibition ([1]; strain Sa_TPS 3118)?
**A.** 18 mm

**Q.** And the Zone of inhibition ([1]; strain Sa_TPS 3133)?
**A.** 18 mm

**Q.** And the Zone of inhibition ([1]; strain Sa_TPS 3134)?
**A.** 18 mm

**Q.** What about the Zone of inhibition ([1]; strain USFL 008) of the same substance?
**A.** 14 mm

**Q.** What about the Zone of inhibition ([1]; strain USFL 009) of the same substance?
**A.** 14 mm

**Q.** And the Zone of inhibition ([1]; strain USFL 012)?
**A.** 16 mm

**Q.** What about the Zone of inhibition ([1]; strain USFL 016) of the same substance?
**A.** 18 mm

**Q.** And the Zone of inhibition ([1]; strain USFL 018)?
**A.** 18 mm

**Q.** And the Zone of inhibition ([1]; strain USFL 020)?
**A.** 16 mm

**Q.** And the Zone of inhibition ([1]; strain USFL 021)?
**A.** 16 mm

**Q.** And the Zone of inhibition ([1]; strain USFL 028)?
**A.** 15 mm

**Q.** What about the Zone of inhibition ([1]; strain USFL 035) of the same substance?
**A.** 16 mm

**Q.** And the Zone of inhibition ([1]; strain USFL 054)?
**A.** 19 mm

**Q.** What about the Zone of inhibition ([1]; strain not given) of the same substance?
**A.** 18 mm

**Q.** And the Zone of inhibition [2]?
**A.** 18 mm

**Q.** What about the Zone of inhibition (Escherichia coli DH5α) of the same substance?
**A.** 20 mm

**Q.** What about the MIC (MRSA 252 [3]) of the same substance?
**A.** 55 µg/mL

**Q.** What about the MIC (MSSA 476 [4]) of the same substance?
**A.** 172 µg/mL

**Q.** And the “Concentration toxic to HEK 293 cells” value (HEK293 cells; HEK 293)?
**A.** >32000 ng/mL

**Q.** What about the “toxicity towards the HEK293 cell line (in words)” value (HEK293 cells; set concentration of 32 μg/mL) of the same substance?
**A.** no toxicity

**Q.** And the Zone of inhibition (MRSA 252 [5])?
**A.** 20 mm

**Q.** What about the Zone of inhibition (MSSA 476 [6]) of the same substance?
**A.** 16 mm
